Paper PMC10115881, “Disrupting the α-synuclein-ESCRT interaction with a peptide inhibitor mitigates neurodegeneration in preclinical models of Parkinson’s disease” (Nature Communications, 2023)
Values belong to the molecule of their own block, whether it stands above or below them. No end group written: not given here. *: point of attachment. FITC = O=C1OC2(c3ccc(O)cc3Oc3cc(O)ccc32)c2ccc(NC(=S)*)cc21

How the values were obtained:
[1] = test system: A53T a-syn expressing HEK293 cells; assay: Cell Titer-Glo cell viability, A53T a-syn expressing cells; format: cell-based, human; details: A53T a-syn cells
Procedure: Oligonucleotides encoding the specific peptides were synthesized and individually cloned into the pLJM1 nGFP lentiviral vector. HEK293T cells were infected with individual constructs, and cell viability was assessed using Cell Titer-Glo luminescent assay (Promega) at 72 h post infection.
Cells were trypsinized from subconfluent cultures as described earlier, suspended in culture media, and then seeded into triplicate wells of a 96-well plate (100 µl/well) at a density of 1.5 × 10^4 cells per well with standard culture conditions of 5% CO2 at 37 °C. Cells were infected with lentivirus expressing peptide at a MOI of 5 for 72 h or transfected with plasmid for 72 h. Cell Titer-Glo reagent was added to each well (30 µL), according to the manufacturer’s protocol and […].

[2] = test system: A53T a-syn; assay: A53T a-syn protein level in HEK293 cells by immunoblot; format: cell-based, human
Procedure: Infected or transfected cells were scraped from six-well dishes and lysed with lysis buffer (50 mM Tris-HCl pH 7.4, 1% Nonidet P-40, 150 mM NaCl, 1 mM EDTA, 1× protease inhibitor mixture (Sigma)) for 30 min at 4 °C. The insoluble pellet was removed following a 10,000 rpm spin for 5 min at 4 °C. Lysates were analyzed by SDS-PAGE/immunoblot using 4–20% Mini-PROTEAN Tris-glycine gels (Bio-Rad), transferred to polyvinylidene fluoride (PVDF) membranes, and blocked in 5% milk containing PBS-Tween-20 (0.1%) for 1 h. PVDF membranes were then incubated with specified primary antibodies followed by incubation with horseradish peroxidase-conjugated secondary antibodies (anti-mouse HRP-linked, Cell Signaling, catalog #7076, 1:5000; anti-rabbit HRP-linked, Cell Signaling, catalog #7074, 1:5000) and detected using enhanced chemiluminescence (GE Healthcare). Anti-a-syn antibody (clone 42) was obtained from BD Biosciences (catalog #610787, 1:1000). Anti-LAMP1 antibody was obtained from Abcam (catalog #ab24170, 1:500). Anti-beta-actin antibody was obtained from Cell Signaling (13E5) (catalog #4970, 1:1000). Anti-CD63 antibody was obtained from R&D Systems (catalog #MAB50482-SP, 1:1000).

[3] = target: VPS4; details: motif-domain interaction; read-out: CHMP2B-VPS4 interaction affinity; cited from earlier work
Description: CHMP2B has been reported to bind to Vacuolar Protein Sorting 4 (VPS4), an AAA-type adenosine triphosphatase. This interaction is mediated by the C-terminal MIM on CHMP2B and a Microtubule Interacting and Trafficking (MIT) domain on VPS4. […] However, we also noted that many CHMP proteins can self-interact and have been reported to multimerize, which may contribute to their function. In particular, CHMP2B can self-interact[30] and is thought to polymerize at the budding of membranes during endosome formation. ...

[4] = target: T1, purified VPS4B (Vacuolar Protein Sorting 4) (UniProt O75351 1-444); assay: FP
T1 chain: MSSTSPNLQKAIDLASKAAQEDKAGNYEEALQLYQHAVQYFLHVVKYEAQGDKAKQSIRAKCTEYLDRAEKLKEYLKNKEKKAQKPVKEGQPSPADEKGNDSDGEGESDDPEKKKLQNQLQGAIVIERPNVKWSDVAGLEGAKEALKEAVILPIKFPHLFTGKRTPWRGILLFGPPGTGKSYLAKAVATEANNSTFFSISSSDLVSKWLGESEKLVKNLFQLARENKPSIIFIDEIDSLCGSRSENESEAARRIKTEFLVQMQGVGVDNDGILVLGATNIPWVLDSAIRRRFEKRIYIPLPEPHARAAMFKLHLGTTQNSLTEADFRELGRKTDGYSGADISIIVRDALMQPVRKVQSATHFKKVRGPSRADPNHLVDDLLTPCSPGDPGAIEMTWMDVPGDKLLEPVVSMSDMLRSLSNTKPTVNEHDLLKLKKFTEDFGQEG

[5] = target: T2, purified VPS4B (Vacuolar Protein Sorting 4) (UniProt O75351 1-444); assay: not stated; 'our affinity measurements' of PDpep1.3 with VPS4 (Fig. S1G); details: both partners purified
T2 construct: VPS4B expressed as a His-tagged Sumo construct in a pRSet B vector; The results speak of 'VPS4'; VPS4B is the only VPS4 protein whose purification is described; source: E. coli Overexpress C41, purified (Ni-NTA)
T2 sequence (looked up): T1 chain

[6] = target: T3, purified recombinant CHMP2B (UniProt Q9UQN3 1-213); assay: fluorescence polarisation; FITC-peptide constant at 50 nM, CHMP2B serially diluted 1:1 from 30 μM; 50 mM Na phosphate pH 5.5 or 20 mM Na acetate pH 5.5, 0.5 mM TCEP, 0.005% Triton-X-100; 30 min at room temperature; details: both partners purified
T3 construct: CHMP2B from the vector pET-DEST42 CHMP2B; eluted as a 26 kDa monomer; Removal of tags is not described; source: E. coli Overexpress C41, inclusion bodies, purified (Ni-NTA in guanidine HCl, dialysis, SEC)
T3 sequence (Q9UQN3 whole entry): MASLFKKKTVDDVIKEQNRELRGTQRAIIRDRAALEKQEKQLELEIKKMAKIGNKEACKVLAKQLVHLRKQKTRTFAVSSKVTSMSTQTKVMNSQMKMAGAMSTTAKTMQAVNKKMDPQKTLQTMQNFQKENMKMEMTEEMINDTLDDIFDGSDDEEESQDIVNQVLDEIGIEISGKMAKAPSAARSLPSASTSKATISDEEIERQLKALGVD

Molecule: CHMP2B: CHarged Multivesicular body Protein 2B, full-length
- Effect on cell survival/viability [1]: rescues a-syn cytotoxicity
- Effect on A53T a-syn protein level [2]: reduces a-syn levels
- Kd [3]: 178 µM

- Kd [4]: ~200 µM
- Kd [5]: > 100 µM
- Kd [6]: 1.8 µM
B1: FITC-labeled PDpep1.3 peptide (peptide)
peptide: {FITC}-DEEIERQLKALG
notes: stretch of the C-terminal region (MIM) of CHMP2B; also called FITC-PDpep1.3; source: synthetic peptide (LifeTein)
